Data: patent publication US20100144743A1, “COMPOSITIONS AND METHODS FOR INHIBITION OF TYROSINE KINASES” (BOARD OF REGENTS, THE UNIVERSITY OF TEXAS SYSTEM, priority 2006, published 2010)
Values joined by “and” are separate entries in the source; they are usually repeats but may differ in a detail not shown here. Equal entries are not always repeated. Where two headings read alike, the source gives them in different places.

Key:
[1] = test system: HIF-1; experiment: HIF-1 GFP/DsRFP expression (G/R) in C6#4 cells stimulated by CoCl2; format: cell-based
[2] = test system: C6#4 cells

EC50 ([1]; C6#4 cells, experiment 1, read-out: G/R (EC-50) 1 ex) [µM]	EC50 ([1]; C6#4 cells, experiment 2, read-out: G/R (EC-50) 2 ex) [µM]	EC50 ([1]; C6#4 cells, experiment 3, read-out: G/R (EC-50) 3 ex) [µM]	SMILES	G/R:WST-1 Ratio Mean [1]	EC50 ([1]; read-out: G/R (EC-50)) [µM]	EC50 ([1]; read-out: G/R (EC-50) 1 ex) [µM]	EC50 ([1]; read-out: G/R (EC-50) 2 ex) [µM]	EC50 ([1]; read-out: G/R (EC-50) 3 ex) [µM]	EC50 ([1]; read-out: G/R (REC-50) Mean) [µM]	EC50 ([2]; read-out: WST-1 (EC-50)) [µM]	EC50 ([2]; read-out: WST-1 (EC-50) 1 ex) [µM]	EC50 ([2]; read-out: WST-1 (EC-50) 2 ex) [µM]	EC50 ([2]; read-out: WST-1 (EC-50) 3 ex) [µM]	EC50 ([2]; read-out: WST-1 (EC-50) Mean) [µM]	EC50 ([1]; read-out: EC 50 G/R) [µM]	cytotoxicity [2]	influence on C6#4 cells ([2]; concentration 200 μM)	EC50 ([2]; read-out: WST-1 (EC-50) 1 ex, C6#4 cells, experiment 1) [µM]	EC50 ([1]; C6#4 cells, 24 h exposure, GFP normalized to RFP, Table 2, read-out: G/R (EC-50)) [µM]
			CC(=O)c1cccc(-c2cnc3c(Nc4ccc(N5CCOCC5)cc4)nccn23)c1 [LG2-81]	3.7	10.5	8.66	12.2	10.5	10.5	38.8	32.2	40.2	43.9	38.8					
			COc1ccc(Nc2nccn3c(-c4cccc(C(N)=O)c4)cnc23)cc1 [LG2-13]				6.9	8.97			7.08	101	99.7		7.95	doesn't have cytotoxicity			
			COc1cc(-c2cnc3c(Nc4ccccc4)nccn23)ccc1O [LG2-62]	1.5 and 1.533	18.9	13.5	24.4	18.9	18.9	30.1	19.5	43.9	27.1	30.1					
			COc1cc(Nc2nccn3c(-c4cccc(C(C)=O)c4)cnc23)cc(OC)c1OC [LG2-75]	1.2 and 1.233	14.8	4.37	16.3	23.7	14.8	16.8	7.04	16.4	26.8	16.8					
			c1ccc2c(-c3cnc4c(Nc5ccc6[nH]ccc6c5)nccn34)cccc2c1 [LG2-89]	1.4 and 1.383	27.9	13.7	42.7	27.2	27.9	35.4	21.4	40.4	44.4	35.4					
			c1ccc(Oc2ccc(Nc3nccn4c(-c5ccc6[nH]ccc6c5)cnc34)cc2)cc1 [LG2-7]	5.6 and 5.633	9.1	14.2	9.34	3.89	9.15	35.2	23	39.9	42.7	35.2					
			CN(C)CCNC(=O)c1ccc(-c2cnc3c(Nc4ccc(Oc5ccccc5)cc4)nccn23)cc1 [LG2-11]	2.2 and 2.237		10.9	15.7	6.07		19.6	18.1	16.6	24.2	19.6					
			COc1cccc(-c2cnc3c(Nc4ccccc4)nccn23)c1 [LG2-85]	2.0 and 2.033	23.5	23.9	23.1	23.5	23.5	48.1	34.8	41.6	67.9	48.1					
9070	3860	5670	CC(C)c1ccc(Nc2nccn3c(-c4cccc(O)c4)cnc23)cc1 [LG2-65]														doesn't influence	56.4	
			O=C(NCCO)c1cccc(-c2cnc3c(NCc4cccs4)nccn23)c1 [LG2-98]																20.4
			COc1cc(OC)cc(-c2cnc3c(NCC4CC4)nccn23)c1 [LG2-102]		37.4					52.7									
